Our source for the K2 and K1 values is ChEMBL document CHEMBL1127296, “Interaction of calcium channel antagonists with calcium: structural studies on nicardipine and its Ca2+ complex” (J Med Chem, 1994).

Experiment [1] in a line: Dissociation constant to estimate the calcium binding to the compound at the ratio of 2:1.
Experiment [2] in a line: Dissociation constant to estimate the calcium binding to the compound at the ratio of 1:1.

For the compound `COC(=O)C1=C(C)NC(C)=C(C(=O)OCCN(C)Cc2ccccc2)C1c1cccc([N+](=O)[O-])c1` (configuration not stated), in experiment [1], the K2 is 26 µM. Besides, in experiment [2], the K1 is 100 µM.
